Test results as given in the NIST ThermoML archive (doi:10.1016/j.tca.2017.06.023).
Numbers after ± are expanded uncertainties.

Experiments:
[1] = 100 kPa, Liquid; for viscosity: Capillary tube (Ostwald / Ubbelohde) method; for speed of sound: Frequency=3 MHz, Sing-around technique in a fixed-path interferometer; for mass density: Vibrating tube method
[2] = refractive index (Na D-line) (dimensionless); details: 100 kPa, Liquid, Standard Abbe refractometry
[3] = refractive index (Na D-line) (dimensionless); xn = mol fraction of the nth substance listed; details: 100 kPa, Liquid, Standard Abbe refractometry, x2 = 0
[4] = xn = mol fraction of the nth substance listed; details: 100 kPa, Liquid, x2 = 0; for viscosity: Capillary tube (Ostwald / Ubbelohde) method; for speed of sound: Frequency=3 MHz, Sing-around technique in a fixed-path interferometer; for mass density: Vibrating tube method

Row | viscosity ([1]; 283.15 K) | speed of sound ([1]; 283.15 K) | mass density ([1]; 283.15 K) | viscosity ([1]; 298.15 K) | speed of sound ([1]; 298.15 K) | mass density ([1]; 298.15 K) | viscosity ([1]; 313.15 K) | speed of sound ([1]; 313.15 K) | mass density ([1]; 313.15 K) | refractive index ([2]; 283.15 K) | refractive index ([2]; 298.15 K) | refractive index ([2]; 313.15 K) | refractive index ([3]; 283.15 K) | refractive index ([3]; 298.15 K) | refractive index ([3]; 313.15 K) | viscosity ([4]; 283.15 K) | speed of sound ([4]; 283.15 K) | mass density ([4]; 283.15 K) | viscosity ([4]; 298.15 K) | speed of sound ([4]; 298.15 K) | also measured | Structure (SMILES)
1 | 3.306 ± 0.069 mPa·s | 1191.9 ± 1.2 m/s | 793.41 ± 0.24 kg/m3 | 2.051 ± 0.043 mPa·s | 1139.2 ± 1.2 m/s | 781.07 ± 0.24 kg/m3 | 1.334 ± 0.028 mPa·s | 1086.6 ± 1.2 m/s | 768 ± 0.24 kg/m3 | 1.38149 ± 0.00033 | 1.37505 ± 0.00033 | 1.36829 ± 0.00033 | – | – | – | – | – | – | – | – | – | CC(C)O [propan-2-ol]
2 | – | – | – | – | – | – | – | – | – | – | – | – | 1.40126 ± 0.00033 | 1.39515 ± 0.00033 | 1.38878 ± 0.00033 | 5.652 ± 0.12 mPa·s | 1266 ± 1.3 m/s | 814.99 ± 0.24 kg/m3 | 3.07 ± 0.064 mPa·s | 1212.2 ± 1.3 m/s | mass density ([4]; 298.15 K): 802.71 ± 0.24 kg/m3; viscosity ([4]; 313.15 K): 1.796 ± 0.037 mPa·s; speed of sound ([4]; 313.15 K): 1157.6 ± 1.2 m/s; mass density ([4]; 313.15 K): 789.86 ± 0.24 kg/m3 | CCC(C)O (stereo not drawn) [butan-2-ol] + CC(=O)N(C)C
3 | 5.652 ± 0.12 mPa·s | 1266 ± 1.3 m/s | 814.99 ± 0.24 kg/m3 | 3.07 ± 0.064 mPa·s | 1212.2 ± 1.3 m/s | 802.71 ± 0.24 kg/m3 | 1.796 ± 0.037 mPa·s | 1157.6 ± 1.2 m/s | 789.86 ± 0.24 kg/m3 | 1.40126 ± 0.00033 | 1.39515 ± 0.00033 | 1.38878 ± 0.00033 | – | – | – | – | – | – | – | – | – | CCC(C)O (stereo not drawn) [butan-2-ol]
4 | – | – | – | – | – | – | – | – | – | – | – | – | 1.38149 ± 0.00033 | 1.37505 ± 0.00033 | 1.36829 ± 0.00033 | 3.306 ± 0.069 mPa·s | 1191.9 ± 1.2 m/s | 793.41 ± 0.24 kg/m3 | 2.051 ± 0.043 mPa·s | 1139.2 ± 1.2 m/s | mass density ([4]; 298.15 K): 781.07 ± 0.24 kg/m3; viscosity ([4]; 313.15 K): 1.334 ± 0.028 mPa·s; speed of sound ([4]; 313.15 K): 1086.6 ± 1.2 m/s; mass density ([4]; 313.15 K): 768 ± 0.24 kg/m3 | CC(C)O [propan-2-ol] + CC(=O)N(C)C
